# In PMC12040169 (PLOS Biology, 2025):
# Assay: in vitro
# Conditions: human, hela cells, % viability
row,SMILES,"viability at 28.5 h, 10 µM"
1,CCN1CC2(CCN(Cc3ccc4nsnc4c3)CC2)c2ccccc21 [CBK136994],87.7%
2,O=C(CO)N1CC2(CCN(CCc3cccc4ccccc34)CC2)c2ccccc21 [CBK137003],91.8%
3,O=C(CO)N1CC2(CCN(Cc3cccc4cccnc34)CC2)c2ccccc21 [CBK137004],104%
4,N#CCCCN1CCC2(CC1)CN(C(=O)CO)c1ccccc12 [CBK137007],86%
5,OCCN1CC2(CCN(Cc3c(F)cccc3F)CC2)c2ccccc21 [CBK137010],109%
6,OCCN1CC2(CCN(CCc3cccc4ccccc34)CC2)c2ccccc21 [CBK137013],106%
7,OCCN1CC2(CCN(Cc3cccc4cccnc34)CC2)c2ccccc21 [CBK137014],95.1%
8,N#CCCCN1CCC2(CC1)CN(CC(N)=O)c1ccccc12 [CBK137024],97.7%
9,Cc1cnc(CNC(=O)Cn2nnc(-c3ccc(CN4CCC(C)CC4)cc3)n2)cn1 [CBK137067C],101%
10,O=C(c1ccc2occc2c1)N1CCCC2(CCN(C(=O)c3cc(F)c(F)cc3F)C2)C1 (stereo not shown) [CBK137071],90.1%
11,O=C(Cc1c[nH]cn1)N1CCCC2(CCN(C(=O)c3cc(F)c(F)cc3F)C2)C1 (stereo not shown) [CBK137072],95.6%
12,COc1ccc(C(=O)N2CCC3(CCCN(C(=O)CC4NC(=O)NC4=O)C3)C2)cc1OC (stereo not shown) [CBK137082],93.7%
13,COc1ccc(C(=O)N2CCC3(CCCN(C(=O)Cn4cc(C)c(=O)[nH]c4=O)C3)C2)cc1OC (stereo not shown) [CBK137085],107%
14,COc1ccc(C(=O)N2CCC3(CCCN(C(=O)CN4C(=O)CSC4=O)C3)C2)cc1OC (stereo not shown) [CBK137088],115%
15,Cc1cc(C(=O)N2CCC3(CCN(Cc4ccccc4)C3)C2)n[nH]1 (stereo not shown) [CBK137092T],93.4%
16,CCOC(=O)C1(C2CCCCC2)CCN(C(=O)c2cc[nH]c2)CC1 [CBK137103],92.1%
17,CCOC(=O)C1(C2CCCCC2)CCN(C(=O)c2cccnc2)CC1 [CBK137104T],95.4%
18,COc1ccc(C(=O)N2CCC3(CCN(CCN4CCCCC4)C3)C2)cc1OC (stereo not shown) [CBK137113T],103%
19,O=C(O)CCN1CCC2(CCN(C(=O)c3cc(F)c(F)cc3F)C2)C1 (stereo not shown) [CBK137123],86.8%
20,O=c1[nH]c2ccccc2n1CCCN1CCC2(CC1)CN(CCO)c1ccccc12 [CBK137133],97.4%
21,O=C(O)CCN1CCCC2(CCN(C(=O)c3ccoc3)C2)C1 (stereo not shown) [CBK137139],93.4%
22,O=C(CN1CCCC2(CCN(C(=O)c3ccoc3)C2)C1)Nc1ncccn1 (stereo not shown) [CBK137140],102%

row,SMILES,"viability at 28.5 h, 10 µM"
1,O=C(Cc1c[nH]cn1)N1CCC2(CCN(Cc3ccccc3)C2)C1 (stereo not shown) [CBK137147],91%
2,O=C(c1ccc2[nH]c(=O)[nH]c2c1)N1CCCC2(CCN(Cc3ccccc3)C2)C1 (stereo not shown) [CBK137149],91.7%
3,CCN(CCC(C)Sc1ccccc1)c1cncc(Oc2ccc(S(C)(=O)=O)cc2)n1 (stereo not shown) [CBK137186T],96.5%
4,CC1(C(C)(O)C(F)F)OC(NC2C3CC4CC(C3)CC2C4)=NC1=O (stereo not shown) [CBK137190],103%
5,O=S(=O)(c1ccccc1)N1CC2(CCNCC2)c2ccccc21 [CBK137413],84.2%
6,CC(=O)N1CCC(O)(C2(C)OC(NC3C4CC5CC(C4)CC3C5)=NC2=O)CC1 (stereo not shown) [CBK138181],91.8%
7,Cc1cc(C)nc(NC(=O)OCc2cc(C)nc(C)c2)c1 [CBK138231],87.9%
8,Cc1cc(C)nc(NC(=O)OCCc2ccncc2)c1 [CBK138233],93.9%
9,Cc1cc(COC(=O)Nc2cccnc2)cc(C)n1 [CBK138236],83.6%
10,NC(=O)CN1CCC(Cc2ccccc2)CC1 [CBK138319],109%
11,NC(=O)CCN1CCc2ccccc2C1 [CBK138325],88.3%
12,O=C(CN1CCCc2ccccc21)c1ccsc1 [CBK138333],91.5%
13,COc1ccc(Cl)cc1N1CCN(CCCn2c(=O)[nH]c3ccccc32)CC1 [CBK138338],95.7%
14,COc1ccc(Cl)cc1N1CCN(CCO)CC1 [CBK138339],88.7%
15,CC(C)(C)OC(=O)N1CCCN(c2ccc(S(=O)(=O)c3ccccc3)c([N+](=O)[O-])c2)CC1 [CBK138502],99.2%
16,O=C(c1ccc(-c2cncc(-c3ccc(Cl)s3)n2)cc1)N1CCOCC1 [CBK138517],92.2%
17,CC(C)(C)OC(=O)n1cccc1-c1cncc(-c2ccc(C(=O)N3CCOCC3)cc2)n1 [CBK138520],100%
18,O=C(Nc1cccc2ccccc12)C1CCCN1S(=O)(=O)c1ccc(F)cc1 (stereo not shown) [CBK138924],97.8%
19,O=C(Nc1cccc2ccccc12)C1CCCN1S(=O)(=O)c1ccc(Cl)cc1 (stereo not shown) [CBK138930],92.9%
20,COCCn1c(SCCC(=O)O)nc2c1c(=O)[nH]c(=O)n2C [CBK139751],82%
21,Cc1ccc(CNc2nc3c(c(=O)[nH]c(=O)n3C)n2CC(O)COC(C)C)cc1 (stereo not shown) [CBK139849],87.3%
22,COCCSc1nc2c(c(=O)[nH]c(=O)n2C)n1CCCc1ccccc1 [CBK140504],90.9%

row,SMILES,"viability at 28.5 h, 10 µM"
1,CN(C)c1nc2c(c(=O)[nH]c(=O)n2C)n1Cc1cccc2ccccc12 [CBK140560],90.1%
2,CN(C)Cc1nc2c([nH]1)c(=O)n(C)c(=O)n2C [CBK140662],99.8%
3,CC(C)OCC(O)Cn1c(NC2CCCCC2)nc2c1c(=O)[nH]c(=O)n2C (stereo not shown) [CBK140893],107%
4,COc1ccc(OC)c(-n2c(C)cn3c4c(=O)[nH]c(=O)n(C)c4nc23)c1 [CBK141314],59.5%
5,COc1cccc(C(c2nnnn2C(C)(C)C)N2CCN(c3cccc(Cl)c3)CC2)c1 (stereo not shown) [CBK141669],112%
6,COc1ccccc1OCCSc1nnnn1C1CCCCC1 [CBK141884],96.6%
7,COc1cc(C(c2nnnn2C2CCCCC2)N2CCN(C)CC2)cc(OC)c1OC (stereo not shown) [CBK142338C],98.3%
8,CC(C)(C)OC(=O)N1CCN(S(=O)(=O)c2ccc(Br)cc2)CC1 [CBK143623],91.8%
9,O=S(=O)(c1ccccc1)n1c(CO)cc2c(C(F)(F)F)cc(CN3CCNCC3)cc21 [CBK143799],97.7%
10,O=C(NC1CCCC1)c1ccncc1 [CBK143916],117%
11,CCNC(=O)N1CC2(CCN(CC3COc4ccccc4O3)CC2)c2ccccc21 (stereo not shown) [CBK143944],102%
12,CCNC(=O)N1CC2(CCN(CCn3cccc3)CC2)c2ccccc21 [CBK143945],93%
13,O=C(CO)N1CC2(CCN(CCn3cccc3)CC2)c2ccccc21 [CBK143953],86.9%
14,OCCN1CC2(CCN(CC3CCCO3)CC2)c2ccccc21 (stereo not shown) [CBK143959],90.8%
15,O=C1NC(=O)C(CCCCN2CCCc3ccccc32)N1 (stereo not shown) [CBK143965],98.3%
16,CCCCN1CCN(S(=O)(=O)c2ccc(Br)cc2)CC1 [CBK144055],99.1%
17,CS(=O)(=O)c1ccc(CN2C(=O)CC3(CCN(Cc4ccccc4)CC3)C2=O)cc1 [CBK144065T],108%
18,Cc1onc(-c2ccccc2)c1CNC(=O)c1ccc(OC(F)(F)F)cc1 [CBK144080],97.9%
19,Cc1onc(-c2ccccc2)c1CNC(=O)/C=C/c1ccc2c(c1)OCO2 [CBK144085],95%
20,Cc1onc(-c2ccccc2)c1CNC(=O)c1cscn1 [CBK144089],97.1%
21,Cc1onc(-c2ccccc2)c1CNC(=O)c1cccnc1 [CBK144100],111%
22,CN1CCC[C@H]1C(=O)Nc1nc2c(s1)C(=O)CC(C)(C)C2 [CBK144101],98.8%

row,SMILES,"viability at 28.5 h, 10 µM"
1,CC1(C)CC(=O)c2sc(NC(=O)c3ccc(OC(F)(F)F)cc3)nc2C1 [CBK144102],109%
2,CC1(C)CC(=O)c2sc(NC(=O)Cc3ccc(Cl)c(Cl)c3)nc2C1 [CBK144103],93.7%
3,CC1(C)CC(=O)c2sc(NC(=O)c3ccc4ncccc4c3)nc2C1 [CBK144105],92.2%
4,CC1CCN(Cc2ccc(-c3nnn(CC(=O)NCc4ccc(S(N)(=O)=O)cc4)n3)cc2)CC1 [CBK144141C],93.3%
5,COc1cccc(CNC(=O)Cn2nnc(-c3ccc(CN4CCC(C)CC4)cc3)n2)c1OC [CBK144161C],94.1%
6,COc1cc(CNC(=O)Cn2nnc(-c3ccc(CN4CCC(C)CC4)cc3)n2)cc(OC)c1OC [CBK144170C],96.5%
7,CC1CCN(Cc2ccc(-c3nnn(CC(=O)NCc4ccc(Cl)cc4Cl)n3)cc2)CC1 [CBK144180C],96.5%
8,O=C(c1ccco1)N1CCN(C(=O)C(c2ccccc2)c2ccccc2)CC1 [CBK144462],88.9%
9,COc1ccccc1OCC(=O)N1CCN(C(=O)c2ccco2)CC1 [CBK144466],86.8%
10,O=C(c1cc[nH]c1)N1CCN(C(=O)c2ccco2)CC1 [CBK144467],90%
11,Cc1ccc(S(=O)(=O)CC(=O)N2CCN(C(=O)c3ccco3)CC2)cc1 [CBK144469],87.1%
12,COc1cc(C(=O)N2CCN(C(=O)c3ccco3)CC2)cc(OC)c1OC [CBK144476],113%
13,O=C(c1cncnc1)N1CCN(C(=O)c2ccco2)CC1 [CBK144477],104%
14,O=C(CN1CCOCC1)N1CCN(C(=O)c2ccco2)CC1 [CBK144478],99.2%
15,O=C(c1ccco1)N1CCN(C(=O)c2c(F)cccc2F)CC1 [CBK144479],86.3%
16,O=C(c1ccc2c(c1)OCCO2)N1CCN(C(=O)c2ccco2)CC1 [CBK144480],101%
17,O=C(COc1cccnc1)N1CCN(C(=O)c2ccco2)CC1 [CBK144482],96.7%
18,N#Cc1cccc(C(=O)N2CCN(c3ncccn3)CC2)c1 [CBK144498],82.2%
19,O=C(COc1ccc(F)cc1)N1CCN(c2ncccn2)CC1 [CBK144499],94.1%
20,O=C(c1ccc2ncccc2c1)N1CCN(c2ncccn2)CC1 [CBK144503],87.9%
21,O=C(C(c1ccccc1)c1ccccc1)N1CCN(c2ncccn2)CC1 [CBK144504],89.4%
22,O=C(c1cscn1)N1CCN(c2ncccn2)CC1 [CBK144506],87.9%
